Columns and labels:
[1] = test system: neuropathic pain (mechanical allodynia) in SCI, LSS and SNI animal models; assay: Mechanical allodynia (von Frey, 50% threshold) in SCI, LSS and SNI neuropathic pain models; type: in vivo, Sprague-Dawley rats; settings: i.p. 5 mg/kg; at 1 hour after administration
Procedure: To be used as a central nerve injury animal model, a traumatic spinal cord injury (SCI) model was prepared (FIG. 1A). Specifically, 230 to 250 g of male adult Sprague-Dawley rats were anesthetized by intraperitoneal injection of chloral hydrate (500 mg/kg), and then the back and neck regions were shaved, and the spinal cord under the back and neck regions was exposed without damaging the dura mater, and a laminectomy was performed at T9 to T10 levels. To stabilize the spine, the spinous processes of T8 and T11 were fixed, and the spine was damaged by free-falling a 10 g weight from a height of 25 mm using an NYU impactor onto the back surface of the exposed spinal cord and then the rats were left in a temperature and humidity-controlled chamber overnight while covering the muscles and skin. After surgery, the rats were subcutaneously injected with a supplement solution (5 ml, lactated ringer) and injected with antibiotics (gentamicin, 5 mg/kg, intramuscular injection) once daily for 5 days. The body weight, remaining food, and the weight of water were confirmed and recorded for all animals, and the bladder was emptied twice daily by passive bladder massage until reflex micturition was established. At this time, a Sham group was a group that was subjected to only laminectomy without damage.
To be used as a peripheral nerve injury animal model, a lumbar spinal stenosis (LSS) model was prepared (FIG. 1B). Specifically, 260 to 280 g of adult male Sprague-Dawley rats were anesthetized with intraperitoneal injection of chloral hydrate (500 mg/kg), the back region was shaved, and then the spinal plate was exposed at L4 to S2 levels. After removing the ligamentous section between L4 and L5, a trapezoidal silicone block (1.00 mm long×1.3 to 1.2 mm wide×1.0 mm high) was inserted into the epidural space below the L5 and L6 spinal plates without damaging the dural sac. At this time, a Sham group was a group that was subjected to only posterior […] on the animal without inserting a silicone block.
To be used as a peripheral nerve injury animal model, a sciatic nerve injury (SNI) model was prepared (FIG. 1C). Specifically, 200 to 220 g of male adult Sprague-Dawley rats were anesthetized by intraperitoneal injection of chloral hydrate (500 mg/kg), and then three terminal branches (tibial, common peroneal, and sural nerves) of the right sciatic nerve were approached, and the tibia nerve and the peroneal nerve were tightly ligated with 4-0 silk, and neurectomy was performed at a distal 3 mm position of the ligation site. At this time, a Sham group was a group that exposed only the sciatic nerve without damage.
In order to confirm a neuropathic pain inhibitory effect of YJ102 (Chemical Formula 1), a compound of the present disclosure, in the three nerve injury animal models prepared in Example 1 above, rats having pain on week 3 (SNI model) or week 4 (SCI model and LSS model) after surgery were selected and administered orally (p.o.) at 10 mg/kg or 20 mg/kg of YJ102 dissolved in a solution of DMSO, methyl pyrrolidinone, and water (1:1.5:1), or intraperitoneally injected (i.p. injection) at 1, 2, or 5 mg/kg of YJ102. In a positive control group, gabapentin or pregabalin dissolved in saline was intraperitoneally injected at a concentration of 5 mg/kg, and in a Vehicle group, the same amount of a solution of DMSO, methyl pyrrolidinone, and water was administered. Thereafter, in order to measure mechanical allodynia, the rats were located at the bottom of a transparent plastic box (10 cm×10 cm) on top of a wire mesh (3 mm×3 mm) and subjected to an adaptation period for approximately 20 minutes. Von-Frey filaments were applied to the soles of both paws and used with stiff nylon von-Frey monofilament series ([…], Stoelting, WoodDale, IL, USA; equivalent in grams to 0.4, 0.6, 1.0, 2.0, 4.0, 6.0, 8.0 and 15.0) with logarithmic increases in tactile (mechanical) sensitivity. […]

sedation = assay: Sedation as side effect of the drug; type: in vivo, Sprague-Dawley rats

| SMILES | analgesic effect [1] | sedation (sedation; 50 mg/kg) | sedation (sedation; 20 mg/kg) |
| --- | --- | --- | --- |
| NCC1(CC(=O)O)CCCCC1 [gabapentin, reference compound] | significant analgesic effect | sedation as a side effect of the drug was observed |  |
| CC(C)C[C@H](CN)CC(=O)O [pregabalin, reference compound] | significant analgesic effect |  | sedation as a side effect of the drug was observed |
